Among the targets are Carbonic anhydrase 9 (Homo sapiens, UniProt Q16790); Carbonic anhydrase 12 (Homo sapiens, UniProt O43570); Carbonic anhydrase 1 (Homo sapiens, UniProt P00915); Carbonic anhydrase 2 (Homo sapiens, UniProt P00918).
Data set [1] in a line: Permeability of the compound in human Caco2 cells assessed as mass balance in diffusion chamber at 15 uM after 90 mins. The class given is ADME, cell-based. The note with it: Caco-2, read-out: permeability.
A further data set concerns the target Albumin (Homo sapiens, UniProt P02768). Briefly: Binding affinity to human serum albumin by chromatographic analysis. The format is ADME. Conditions: isolated protein.
Data set [2] can be described thus: Degradation half life in human plasma at 5000 ng/mL by UPLC-MS analysis. The format is ADME, cell-free.
The target of a further data set is Carbonic anhydrase 14 (Homo sapiens, UniProt Q9ULX7). Nature of the data set: Inhibition of human carbonic anhydrase 14 by stopped-flow CO2 hydration assay.
Sequence of Carbonic anhydrase 14 (Q9ULX7 whole entry, the tested form may be a part): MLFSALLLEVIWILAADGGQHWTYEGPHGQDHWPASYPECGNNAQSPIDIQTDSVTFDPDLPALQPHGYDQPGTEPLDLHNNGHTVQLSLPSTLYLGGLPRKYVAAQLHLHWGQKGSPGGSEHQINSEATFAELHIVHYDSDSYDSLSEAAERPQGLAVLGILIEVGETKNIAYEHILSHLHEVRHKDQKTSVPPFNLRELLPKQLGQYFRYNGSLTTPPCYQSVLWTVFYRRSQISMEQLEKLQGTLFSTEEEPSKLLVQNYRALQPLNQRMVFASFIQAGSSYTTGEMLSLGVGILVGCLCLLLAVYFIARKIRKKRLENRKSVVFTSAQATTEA
Data set [3] is described as follows: Permeability of the compound in human Caco2 cells assessed as mass balance in diffusion chamber at 20 uM after 90 mins. The note with it: Caco-2, read-out: permeability. The format is ADME, cell-based.
The nature of data set [4]: Intrinsic clearance in human liver microsomes at 1 uM after 2 to 60 mins by LCMS analysis in absence of NADPH. The format is ADME. The note with it: read-out: CLH.
Data set [5] can be described thus: Intrinsic clearance in human liver microsomes at 1 uM after 2 to 60 mins by LCMS analysis in presence of NADPH. The format is ADME. The note with it: read-out: CLH.
Data set [6] in a line: Solubility of the compound in HEPES buffer at pH 7.4. The class given is physicochemical.
The nature of data set [7]: Permeability of the compound in human Caco2 cells assessed as mass balance in diffusion chamber at 8 uM after 90 mins. The format is ADME, cell-based. Conditions: Caco-2, read-out: permeability.

These results are taken from ChEMBL document CHEMBL3091452, “A prodrug approach toward cancer-related carbonic anhydrase inhibition” (J Med Chem, 2013).

Where only a bound is given, the exact number is not on record here.

Sequence of Albumin (P02768 whole entry): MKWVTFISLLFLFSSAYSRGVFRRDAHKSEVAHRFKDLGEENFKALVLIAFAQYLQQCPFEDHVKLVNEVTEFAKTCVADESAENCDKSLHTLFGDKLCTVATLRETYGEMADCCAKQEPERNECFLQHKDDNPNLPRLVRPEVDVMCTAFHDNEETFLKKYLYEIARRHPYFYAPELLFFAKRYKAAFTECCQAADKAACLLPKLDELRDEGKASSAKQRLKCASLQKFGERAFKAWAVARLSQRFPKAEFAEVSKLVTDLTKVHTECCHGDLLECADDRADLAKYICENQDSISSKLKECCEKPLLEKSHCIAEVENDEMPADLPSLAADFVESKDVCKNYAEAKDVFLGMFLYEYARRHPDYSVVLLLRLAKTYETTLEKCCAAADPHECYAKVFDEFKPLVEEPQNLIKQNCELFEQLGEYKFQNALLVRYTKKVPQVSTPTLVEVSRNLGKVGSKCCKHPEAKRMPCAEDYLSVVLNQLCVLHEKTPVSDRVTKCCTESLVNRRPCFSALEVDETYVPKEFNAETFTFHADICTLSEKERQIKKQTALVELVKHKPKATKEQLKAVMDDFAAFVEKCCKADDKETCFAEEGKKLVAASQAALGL
Sequence of Carbonic anhydrase 1 (P00915 whole entry, the tested form may be a part): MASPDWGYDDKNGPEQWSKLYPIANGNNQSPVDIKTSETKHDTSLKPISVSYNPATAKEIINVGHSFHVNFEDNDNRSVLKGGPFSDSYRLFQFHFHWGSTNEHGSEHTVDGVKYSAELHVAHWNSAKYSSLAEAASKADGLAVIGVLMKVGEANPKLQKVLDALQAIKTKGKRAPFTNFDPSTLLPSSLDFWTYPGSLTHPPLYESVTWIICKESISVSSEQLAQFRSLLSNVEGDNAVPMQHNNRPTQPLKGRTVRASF
Sequence of Carbonic anhydrase 12 (O43570 whole entry, the tested form may be a part): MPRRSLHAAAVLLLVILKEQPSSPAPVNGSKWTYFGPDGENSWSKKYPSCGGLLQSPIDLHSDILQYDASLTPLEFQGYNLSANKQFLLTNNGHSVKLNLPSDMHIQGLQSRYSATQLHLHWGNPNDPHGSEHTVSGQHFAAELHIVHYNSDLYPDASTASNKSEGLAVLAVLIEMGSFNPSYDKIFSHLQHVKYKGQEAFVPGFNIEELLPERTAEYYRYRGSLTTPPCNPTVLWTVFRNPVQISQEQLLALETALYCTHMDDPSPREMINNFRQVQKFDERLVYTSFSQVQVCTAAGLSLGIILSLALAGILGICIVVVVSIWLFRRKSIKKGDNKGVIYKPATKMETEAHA
Description for Carbonic anhydrase 12: Inhibition of human carbonic anhydrase 12 by stopped-flow CO2 hydration assay
Description for Carbonic anhydrase 2: Inhibition of human carbonic anhydrase 2 by stopped-flow CO2 hydration assay
Description for Carbonic anhydrase 9: Inhibition of human carbonic anhydrase 9 by stopped-flow CO2 hydration assay

Consider `C#Cc1cccc(S(N)(=O)=O)c1`, for which the affinity at Carbonic anhydrase 9, expressed as Ki, was 65.7 nM.

As to `CC(=O)OC[C@H]1O[C@@H](n2cc(-c3ccc(S(N)(=O)=O)cc3)nn2)[C@H](OC(C)=O)[C@@H](OC(C)=O)[C@@H]1OC(C)=O`, the recovery at 1.5 h, 15 µM in [1] was 81%. The same molecule came in with an Activity at Albumin of 30%. Further, the half-life at 5000 ng/mL in [2] came to 7 min. For the same molecule, the results for the Ki on Carbonic anhydrase 14 and on Carbonic anhydrase 12 were 104 nM and 67.1 nM, respectively.

In the case of `NS(=O)(=O)c1ccc(-c2cn([C@@H]3O[C@H](CO)[C@@H](O)[C@H](O)[C@H]3O)nn2)cc1`, the recovery at 1.5 h, 20 µM in data set [3] was determined as 100%. The microsomal CLint at 1 µM in data set [4] and in data set [5] was < 7 µL/min/mg each time. On Albumin, this molecule yielded an Activity of 13%. The half-life at 5000 ng/mL in [2] is > 250 min. The Ki on Carbonic anhydrase 14 came out at 50.3 nM; on Carbonic anhydrase 12, 40.1 nM.

For `NS(=O)(=O)c1ccc(-c2cn([C@@H]3O[C@H](CO)[C@H](O)[C@H](O)[C@H]3O)nn2)cc1`, the Ki on Carbonic anhydrase 14 came to 20.1 nM; on Carbonic anhydrase 12, 36.3 nM; on Carbonic anhydrase 9, 126 nM; at Carbonic anhydrase 1, 7950 nM; on Carbonic anhydrase 2, 6.7 nM.

`C#Cc1ccc(S(N)(=O)=O)cc1`: on Carbonic anhydrase 9, affinity was put at a Ki of 54 nM.

On Carbonic anhydrase 9, `CC(C)CC(=O)OC[C@H]1O[C@@H](n2cc(-c3cccc(S(N)(=O)=O)c3)nn2)[C@H](OC(=O)CC(C)C)[C@@H](OC(=O)CC(C)C)[C@H]1OC(=O)CC(C)C` displayed a Ki of 254 nM.

In the case of `CCCCC(=O)OC[C@H]1O[C@@H](n2cc(-c3cccc(S(N)(=O)=O)c3)nn2)[C@H](OC(=O)CCCC)[C@@H](OC(=O)CCCC)[C@H]1OC(=O)CCCC`, the Ki at Carbonic anhydrase 9 amounted to 800 nM.

`CCCC(=O)OC[C@H]1O[C@@H](n2cc(-c3cccc(S(N)(=O)=O)c3)nn2)[C@H](OC(=O)CCC)[C@@H](OC(=O)CCC)[C@H]1OC(=O)CCC`: at Carbonic anhydrase 9, the affinity, expressed as Ki, was 69.2 nM.

`CCC(=O)OC[C@H]1O[C@@H](n2cc(-c3cccc(S(N)(=O)=O)c3)nn2)[C@H](OC(=O)CC)[C@@H](OC(=O)CC)[C@H]1OC(=O)CC` came in with a Ki at Carbonic anhydrase 9 of 126 nM.

In the case of `CC(=O)OC[C@H]1O[C@@H](n2cc(-c3cccc(S(N)(=O)=O)c3)nn2)[C@H](OC(C)=O)[C@@H](OC(C)=O)[C@H]1OC(C)=O`, the affinity at Carbonic anhydrase 9, expressed as Ki, was 943 nM.

With `NS(=O)(=O)c1cccc(-c2cn([C@@H]3O[C@H](CO)[C@H](O)[C@H](O)[C@H]3O)nn2)c1`, the inhibitory constant (Ki) at Carbonic anhydrase 9 amounted to 590 nM.

`CC(C)CC(=O)OC[C@H]1O[C@@H](n2cc(-c3ccc(S(N)(=O)=O)cc3)nn2)[C@H](OC(=O)CC(C)C)[C@@H](OC(=O)CC(C)C)[C@H]1OC(=O)CC(C)C`: the Ki on Carbonic anhydrase 14 was 15.9 nM; on Carbonic anhydrase 12, 23.3 nM; on Carbonic anhydrase 9, 374 nM; on Carbonic anhydrase 1, 3210 nM; at Carbonic anhydrase 2, 37.9 nM.

On to `CCCCC(=O)OC[C@H]1O[C@@H](n2cc(-c3ccc(S(N)(=O)=O)cc3)nn2)[C@H](OC(=O)CCCC)[C@@H](OC(=O)CCCC)[C@H]1OC(=O)CCCC`, for which the Ki came out at 67.3 nM on Carbonic anhydrase 14, 31 nM at Carbonic anhydrase 12, 2130 nM at Carbonic anhydrase 1 and 73.6 nM at Carbonic anhydrase 2.

With `CCCC(=O)OC[C@H]1O[C@@H](n2cc(-c3ccc(S(N)(=O)=O)cc3)nn2)[C@H](OC(=O)CCC)[C@@H](OC(=O)CCC)[C@H]1OC(=O)CCC`, the Ki at Carbonic anhydrase 14 was 35.6 nM; on Carbonic anhydrase 12, 9.5 nM; on Carbonic anhydrase 1 it was 257 nM; on Carbonic anhydrase 2, 6.9 nM.

With `CCC(=O)OC[C@H]1O[C@@H](n2cc(-c3ccc(S(N)(=O)=O)cc3)nn2)[C@H](OC(=O)CC)[C@@H](OC(=O)CC)[C@H]1OC(=O)CC`, the Ki on Carbonic anhydrase 14 came to 10.9 nM; at Carbonic anhydrase 12, 5.4 nM; on Carbonic anhydrase 9, 5.1 nM; at Carbonic anhydrase 1, 78.8 nM; at Carbonic anhydrase 2, 8.1 nM.

As to `CC(C)CC(=O)OC[C@H]1O[C@@H](n2cc(-c3cccc(S(N)(=O)=O)c3)nn2)[C@H](OC(=O)CC(C)C)[C@@H](OC(=O)CC(C)C)[C@@H]1OC(=O)CC(C)C`, the Ki at Carbonic anhydrase 9 was found to be 724 nM.

In turn, `CCCCC(=O)OC[C@H]1O[C@@H](n2cc(-c3cccc(S(N)(=O)=O)c3)nn2)[C@H](OC(=O)CCCC)[C@@H](OC(=O)CCCC)[C@@H]1OC(=O)CCCC` displayed an inhibitory constant (Ki) at Carbonic anhydrase 9 of 402 nM.

The molecule `CCCC(=O)OC[C@H]1O[C@@H](n2cc(-c3cccc(S(N)(=O)=O)c3)nn2)[C@H](OC(=O)CCC)[C@@H](OC(=O)CCC)[C@@H]1OC(=O)CCC` came in with a Ki on Carbonic anhydrase 9 of 583 nM.

Molecule `CC(=O)OC[C@H]1O[C@@H](n2cc(-c3cccc(S(N)(=O)=O)c3)nn2)[C@H](OC(C)=O)[C@@H](OC(C)=O)[C@@H]1OC(C)=O` gave a Ki at Carbonic anhydrase 9 of 480 nM.

`CCC(=O)OC[C@H]1O[C@@H](n2cc(-c3cccc(S(N)(=O)=O)c3)nn2)[C@H](OC(=O)CC)[C@@H](OC(=O)CC)[C@@H]1OC(=O)CC` yielded a Ki at Carbonic anhydrase 9 of 874 nM.

For `CC(C)CC(=O)OC[C@H]1O[C@@H](n2cc(-c3ccc(S(N)(=O)=O)cc3)nn2)[C@H](OC(=O)CC(C)C)[C@@H](OC(=O)CC(C)C)[C@@H]1OC(=O)CC(C)C`, the solubility result in data set [6] is listed as “Insoluble”. The microsomal CLint at 1 µM in data set [4] and in [5] was < 7 µL/min/mg in each case. In addition, the Activity on Albumin is > 99%. The half-life at 5000 ng/mL in data set [2] is > 250 min. In addition, the Ki was determined as 40.1 nM at Carbonic anhydrase 14; 52 nM on Carbonic anhydrase 12; 426 nM on Carbonic anhydrase 9; 9440 nM on Carbonic anhydrase 1; 440 nM at Carbonic anhydrase 2.

As for `CCCCC(=O)OC[C@H]1O[C@@H](n2cc(-c3ccc(S(N)(=O)=O)cc3)nn2)[C@H](OC(=O)CCCC)[C@@H](OC(=O)CCCC)[C@@H]1OC(=O)CCCC`, the solubility entry in data set [6] is on record as “Insoluble”. The microsomal CLint at 1 µM in data set [4] and in [5] was < 7 µL/min/mg each time. The Activity on Albumin is recorded as > 99%. In addition, the half-life at 5000 ng/mL in data set [2] is > 250 min. The Ki at Carbonic anhydrase 14 came out at 176 nM; at Carbonic anhydrase 12, 52.7 nM; on Carbonic anhydrase 1, 9230 nM; at Carbonic anhydrase 2 it was 573 nM.

As for `CCCC(=O)OC[C@H]1O[C@@H](n2cc(-c3ccc(S(N)(=O)=O)cc3)nn2)[C@H](OC(=O)CCC)[C@@H](OC(=O)CCC)[C@@H]1OC(=O)CCC`, in data set [6], the solubility entry is “Insoluble”. The same molecule gave an Activity on Albumin of 94%. Further, the half-life at 5000 ng/mL in data set [2] is 25 min. The Ki at Carbonic anhydrase 14 was 119 nM; at Carbonic anhydrase 12, 50.2 nM; on Carbonic anhydrase 9 it was 633 nM; at Carbonic anhydrase 1, 1800 nM; at Carbonic anhydrase 2, 76.3 nM.

Turning to `CCC(=O)OC[C@H]1O[C@@H](n2cc(-c3ccc(S(N)(=O)=O)cc3)nn2)[C@H](OC(=O)CC)[C@@H](OC(=O)CC)[C@@H]1OC(=O)CC`, the recovery at 1.5 h, 8 µM in [7] was determined as 47%. The Activity at Albumin amounted to 77%. For the same molecule, the half-life at 5000 ng/mL in data set [2] came to 3 min. In addition, the Ki at Carbonic anhydrase 14 is 256 nM; on Carbonic anhydrase 12, 7.4 nM; at Carbonic anhydrase 9 it was 475 nM; on Carbonic anhydrase 1, 2020 nM; on Carbonic anhydrase 2, 71.1 nM.

For `CC(=O)OC[C@H]1O[C@@H](n2cc(-c3ccc(S(N)(=O)=O)cc3)nn2)[C@H](OC(C)=O)[C@@H](OC(C)=O)[C@H]1OC(C)=O`, the Ki at Carbonic anhydrase 14 was 15.8 nM; at Carbonic anhydrase 12, 9.7 nM.
